The values below come from US11400091B2, “AXL kinase inhibitors and use of the same” (Sumitomo Pharma Oncology, Inc., priority 2018, dated 2022).

What is called mortality is the percentage killed. As a reminder, the solubility is how much of the substance goes into solution per volume. Read a low solubility as a poorly soluble substance. For orientation: kinetic solubility means solubility judged after dilution from a stock solution rather than from solid. By EC50 is commonly meant the concentration that produces a half-maximal response. High values mean a less potent agent, low ones a more potent agent. By IC50 is commonly meant the midpoint of a concentration-inhibition curve. Low values mean greater potency in that assay, high ones weaker potency in that assay. What is called Solubility is the dissolved amount per volume that the medium holds.

Counter-ions that a name gives are not always drawn.

A short description of series [1]: Solid state stability at 40° C./75% RH. The format is physicochemical. The note with it: for Form Change at 3 weeks / HPLC Purity at 3 weeks (area %): 3 weeks under 40° C./75% RH; for Initial HPLC Purity (area %): before storage. How it is done:
Agilent 1260 HPLC was utilized and detailed chromatographic conditions for purity and solubility measurement are listed in Table 13 below.
The table below summarizes the characterization and solid state stability results observed for FB and Forms A, B, and D. Samples were prepared and data was obtained according to the procedures and processes listed above unless otherwise specified. More procedures, processes, and results are listed below in Table 14.

Series [2] can be described thus: Dynamic Vapor Sorption (DVS). It counts as physicochemical. The note with it: 25° C.; for water uptake at 80% RH: DVS; for FC (form change) after DVS: up to 80% RH. How it is done: The Dynamic Vapour Sorption studies were performed using a Surface Measurement Systems Ltd. DVS-1 No Video, equipment #2126. The sample is loaded into balance pan, typically 20-30 mg, and equilibrated at 0% RH. […] After completion of the sorption cycle, the sample was dried using the same method. The software used for data collection is DVSWin v3.01 No Video. Data analysis is performed using DVS Standard Analysis Suite v6.3.0 (Standard).

Series [3] in a line: 7-day repeat dose toxicity and toxicokinetics. The format is in vivo, CD-1 mice. Conditions: high dose level (80 mg/kg/day). The source says:
The test articles were formulated with 1% Tween 80/5% TPGS/Sterile Water for Injection (v/v/v) and the study designed as indicated in Table 16 below:
Endpoints during the study consisted of clinical observations, body weight, and toxicokinetics. Animals euthanized due to excessive body weight loss in the toxicology-designated groups were euthanized, necropsied, and macroscopic observations recorded.

The nature of series [4]: Moisture sorption isotherm of crystalline forms. It counts as physicochemical.
A short description of another series: pH solubility. It counts as physicochemical. The note with it: for solubility at 24 h: 37 °C, thermodynamic from solid; for FC (form change) of residual solid / Solubility: 24 hours; for Solubility: 37° C.
Series [5] in a line: Stability studies of crystalline forms (HPLC). It counts as physicochemical.
A short description of series [6]: Single dose toxicity study. It counts as in vivo. Conditions: single oral 150 mg/kg (free base equivalent); by the end of the recovery period. How it is done: The FB dose levels evaluated were 20, 50, and 150 mg/kg. The test articles were formulated with 1% Tween 80/5% TPGS/Sterile Water for Injection (v/v/v) and the study designed as indicated in Table 15 below:
Endpoints in the study consisted of mortality checks, clinical observations, body weight measurements and toxicokinetics. Following a 7-day post-dose observation period, animals were euthanized, necropsied and macroscopic observations recorded.

A short description of series [7]: Kinetic solubility in bio-relevant buffers. The format is physicochemical. The note with it: for solubility at 24 h: 37 °C, thermodynamic from solid; for solubility kinetic: bio-relevant buffers (FaSSIF, fassgf or other biorelevant, thermodynamic from solid), FeSSIF and SGF, read-out: kinetic solubility in all biorelevant buffers; for solubility kinetic / Solubility: 37° C.; for Solubility: di-tartrate salt.

Another series deals with H1650 NSCLC cell line. As to the kind of experiment: H1650 cell viability (CellTiter-Glo). It counts as cell-based. The note with it: Homo sapiens, NCI-H1650. (Cellular ATP, detected with luciferase, serves as a proxy for viable cell number.)
In the next series the test system is H1650. As to the kind of experiment: H1650 NSCLC xenograft. The format is in vivo, athymic nude mice. The note with it: 21-day regimen; tartrate salt 40 mpk qd; osimertinib 20 mpk qd. How it is done:
H1650 cells were injected subcutaneously into the hind flank of athymic nude mice at 1×10^7 cells/mouse. Once tumor volumes exceeded 100 mm^3, mice were randomized into study arms.
To assess the combination in vivo, the H1650 xenograft model for NSCFC was utilized. […] Slug and E-cadherin mRNA expression was assessed by standard qPCR technique. […] Slug and E-cadherin protein expression was assessed by standard immunoblotting technique.
(§1) Tumor volumes and bodyweights were assessed twice weekly.
as §1

For another series, the system named is ES-2 cells. As to the kind of experiment: Scratch assay, migration of ovarian tumor cells. The format is cell-based. Conditions: 6 hours pre-treatment; images 18 hours post-scratching; BMS-777607 up to 10 μM.
In series [8] the test system is CYP26 mRNA in MV4-11 leukemia cells. The series is described as follows: CYP26 mRNA expression (RT-PCR). It counts as cell-based. Conditions: 1 μM RA; 6 hours.
In the next series the test system is ovarian cell lines. As to the kind of experiment: Cisplatin (CDDP) sensitivity of ovarian cell lines. It counts as cell-based.

As to `CN1CCN(Cc2ccc(Nc3ncc(Cl)c(Nc4ccccc4S(=O)(=O)N(C)C)n3)cc2)CC1.O=C(O)C(O)C(O)C(=O)O` [Form D, 2-((5-chloro-2-((4-((4-methylpiperazin-1-yl)methyl)phenyl)amino)pyrimidin-4-yl)amino)-N,N-dimethylbenzenesulfonamide mono-tartrate salt], the “Form Change at 3 weeks” value in series [1] was “No”. Further, in [1], the “HPLC Purity at 3 weeks (area %)” value came to 98.3 area %. Besides, the “Initial HPLC Purity (area %)” value in series [1] was 98.8 area %. In [2] (mono-tartrate salt), the “water uptake at 80% RH” value is given as 5.2%. The “FC (form change) after DVS” value in series [2] is given as “Yes”. Also, the figures for the mortality result in series [3] and in series [6] were “one mouse died” and 100%, respectively. Further, in [4], the Moisture sorption isotherm result is reported as “hygroscopic”. Further, in series [4], the “crystal form by XRPD after the moisture absorption/desorption cycle” value is listed as “transformed to the other forms”. Moreover, the solubility at 24 h in the series “pH solubility” (pH 2.0 buffer, pH 2, aqueous buffer) was more than 6800 µg/mL; in “pH solubility” (pH 4.0 buffer, pH 4, aqueous buffer) it was 230 µg/mL; in “pH solubility” (pH 6.0 buffer, pH 6, aqueous buffer), 1900 µg/mL; in the series “pH solubility” (pH 8.0 buffer, pH 8, aqueous buffer), 5 µg/mL; in the series “pH solubility” (pH 10.0 buffer, pH 10, aqueous buffer) it was 53 µg/mL; in [7] (FaSSIF, 24 hours), 3900 µg/mL. The solubility at 24 h in [7] (FeSSIF, 24 hours) was 4600 µg/mL; in [7] (SGF, simulated gastric fluid, 24 hours), more than 11000 µg/mL. Further, the “FC (form change) of residual solid” value is reported as “Yes” in “pH solubility” (pH 4.0); “Yes” in the series “pH solubility” (pH 6.0); “Yes” in “pH solubility” (pH 8.0); “Yes” in “pH solubility” (pH 10.0); “Yes” in series [7] (FaSSIF, 24 hours). Further, the “Stability Results” value in series [5] (40° C.) is 98.2%; in series [5] (40° C./75% RH), 98.4%; in [5] (60° C.) it was 98.2%; in series [5] (60° C./75% RH) it was 98.2%; in series [5] (Initial), 98.4%. Besides, the “Stability by HPLC” value is listed as “Stable” in [5] (listed as D, mono-tartrate salt) and “No significant changes” in series [5] (mono-tartrate salt). Besides, in series [7] (FaSSIF), the solubility (kinetic) is more than 5000 µg/mL.
Compound `C=CC(=O)Nc1cc(Nc2nccc(-c3cn(C)c4ccccc34)n2)c(OC)cc1N(C)CCN(C)C` [osimertinib] yielded an EC50 with H1650 NSCLC cell line of 2200 nM. The same compound showed a half-inhibitory concentration (IC50) in the series with H1650 NSCLC cell line (single agent, 72 hours) of 2200 nM. Moreover, the “tumor growth inhibition (% TGI), single agent” value in the series with H1650 turned out to be 121%.
As to `CN1CCN(Cc2ccc(Nc3ncc(Cl)c(Nc4ccccc4S(=O)(=O)N(C)C)n3)cc2)CC1` [Form A, 2-((5-chloro-2-((4-((4-methylpiperazin-1-yl)methyl)phenyl)amino)pyrimidin-4-yl)amino)-N,N-dimethylbenzenesulfonamide di-tartrate salt], the “Form Change at 3 weeks” value in series [1] (di-tartrate salt) is recorded as “No”. Also, the “HPLC Purity at 3 weeks (area %)” value in series [1] (di-tartrate salt) amounted to 99.7 area %. In addition, the “Initial HPLC Purity (area %)” value in [1] (di-tartrate salt) amounted to 99.6 area %. Further, the “water uptake at 80% RH” value in [2] (di-tartrate salt) came to 4.6%. For the same compound, the “FC (form change) after DVS” value in series [2] is recorded as “No”. The Moisture sorption isotherm result in series [4] is given as “hygroscopic”. Also, in series [4], the “crystal form by XRPD after the moisture absorption/desorption cycle” value is on record as “maintained”. Also, the Solubility is given as >6.7/NA mg/mL in “pH solubility” (pH 2.0 buffer, di-tartrate salt); 0.45 mg/mL in the series “pH solubility” (pH 4.0 buffer, di-tartrate salt); 3.8 mg/mL in “pH solubility” (pH 6.0 buffer, di-tartrate salt); 0.020 mg/mL in “pH solubility” (pH 8.0 buffer, di-tartrate salt); 0.0098 mg/mL in “pH solubility” (pH 10.0 buffer, di-tartrate salt); >14.8/NA mg/mL in series [7] (FaSSIF, 24 hours). For the same compound, the Solubility is given as 5.2/NA* mg/mL in series [7] (FeSSIF, 24 hours) and >17.4/NA mg/mL in [7] (SGF, 24 hours). In addition, the “FC (form change) of residual solid” value in the series “pH solubility” (pH 4.0) is reported as “Yes”; in the series “pH solubility” (pH 6.0, di-tartrate salt), “Yes”; in the series “pH solubility” (pH 8.0, di-tartrate salt), “Yes”; in the series “pH solubility” (pH 10.0, di-tartrate salt), “Yes”. The “Stability Results” value in series [5] (40° C.), in [5] (40° C./75% RH), in series [5] (60° C.), in series [5] (60° C./75% RH) and in series [5] (Initial) was 99.3% each time. Moreover, the “Stability by HPLC” value in series [5] (di-tartrate salt) is “No significant changes”; in series [5] (listed as A, di-tartrate salt) it was “Stable”. Further, in series [7] (FaSSIF), the kinetic solubility is more than 5000 µg/mL.
As for `CCOc1ccn(-c2ccc(F)cc2)c(=O)c1C(=O)Nc1ccc(Oc2ccnc(N)c2Cl)c(F)c1` [BMS-777607], in the series with ES-2 cells, the “migration of ES-2 cells” value was “did not inhibit migration”.
For the compound Retinyl Acetate [RA], the “induction in mRNA expression levels of CYP26” value in series [8] is recorded as approximately 4.3 fold.
As for `[NH2][Pt]([NH2])([Cl])[Cl]` [CDDP, cisplatin], the 50% inhibitory concentration (IC50) in the series on ovarian cell lines (PA-1, A2780, OVISE, and OVTOKO (CDDP sensitive)) was less than 1000 nM; in the series on ovarian cell lines (other cell lines (CDDP resistant)) it was more than 2500 nM.
